In the supplement of paper PMC10307832:

Tests used:
Assay in all cases: relative viability (nuclei count vs DMSO), 5 days (fraction); higher = more cells survive
OSI-027 + Palbociclib = compound: COc1cccc2cc(-c3nc([C@H]4CC[C@H](C(=O)O)CC4)n4ncnc(N)c34)[nH]c12 [OSI-027] + CC(=O)c1c(C)c2cnc(Nc3ccc(N4CCNCC4)cn3)nc2n(C2CCCC2)c1=O [Palbociclib] (partner 0.5 µM)
Outline: (§1)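 Relative viability is defined as nuclei in treated wells over nuclei in vehicle wells. Duplicate plates were run and medians reported. Lung cancer cell lines in 1536-well plates were dosed by pin tool one day after seeding, with one drug or with a fixed anchor-drug dose plus five library-drug doses (not always all listed) in √10 steps, and nuclei were counted after 5 days.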

OSI-027 + Olaparib = compound: COc1cccc2cc(-c3nc([C@H]4CC[C@H](C(=O)O)CC4)n4ncnc(N)c34)[nH]c12 [OSI-027] + O=C(c1cc(Cc2n[nH]c(=O)c3ccccc23)ccc1F)N1CCN(C(=O)C2CC2)CC1 [Olaparib] (partner 8 µM)
Outline: as §1

Alpelisib + Navitoclax = compound: Cc1nc(NC(=O)N2CCC[C@H]2C(N)=O)sc1-c1ccnc(C(C)(C)C(F)(F)F)c1 [Alpelisib] + CC1(C)CCC(c2ccc(Cl)cc2)=C(CN2CCN(c3ccc(C(=O)NS(=O)(=O)c4ccc(N[C@H](CCN5CCOCC5)CSc5ccccc5)c(S(=O)(=O)C(F)(F)F)c4)cc3)CC2)C1 [Navitoclax] (partner 0.5 µM)
Outline: as §1

Alpelisib + Pictilisib = compound: Cc1nc(NC(=O)N2CCC[C@H]2C(N)=O)sc1-c1ccnc(C(C)(C)C(F)(F)F)c1 [Alpelisib] + CS(=O)(=O)N1CCN(Cc2cc3nc(-c4cccc5[nH]ncc45)nc(N4CCOCC4)c3s2)CC1 [Pictilisib] (partner 1 µM)
Outline: as §1

| Cell Line | relative viability (OSI-027 + Palbociclib; first compound 0.01 µM) | relative viability (OSI-027 + Palbociclib; first compound 0.03162 µM) | relative viability (OSI-027 + Palbociclib; first compound 0.1 µM) | relative viability (OSI-027 + Palbociclib; first compound 0.3162 µM) | relative viability (OSI-027 + Palbociclib; first compound 1 µM) | relative viability (OSI-027 + Olaparib; first compound 0.01 µM) | relative viability (OSI-027 + Olaparib; first compound 0.03162 µM) | relative viability (OSI-027 + Olaparib; first compound 0.1 µM) | relative viability (OSI-027 + Olaparib; first compound 0.3162 µM) | relative viability (OSI-027 + Olaparib; first compound 1 µM) | relative viability (Alpelisib + Navitoclax; first compound 0.04 µM) | relative viability (Alpelisib + Navitoclax; first compound 0.1265 µM) | relative viability (Alpelisib + Navitoclax; first compound 0.4 µM) | relative viability (Alpelisib + Navitoclax; first compound 1.265 µM) | relative viability (Alpelisib + Navitoclax; first compound 4 µM) | relative viability (Alpelisib + Pictilisib; first compound 0.04 µM) | relative viability (Alpelisib + Pictilisib; first compound 0.1265 µM) | relative viability (Alpelisib + Pictilisib; first compound 0.4 µM) | relative viability (Alpelisib + Pictilisib; first compound 1.265 µM) | relative viability (Alpelisib + Pictilisib; first compound 4 µM) |
| --- | --- | --- | --- | --- | --- | --- | --- | --- | --- | --- | --- | --- | --- | --- | --- | --- | --- | --- | --- | --- |
| NCI-H838 | 0.203 | 0.195 | 0.191 | 0.165 | 0.168 | 0.791 | 0.856 | 0.705 | 0.492 | 0.437 | 1.02 | 1.08 | 1.15 | 1.04 | 1.01 | 0.439 | 0.471 | 0.427 | 0.47 | 0.434 |
| NCI-H1650 | 0.361 | 0.344 | 0.278 | 0.357 | 0.286 | 0.794 | 0.825 | 0.873 | 0.807 | 0.722 | 1.29 | 1.29 | 1.42 | 0.762 | 1.19 | 0.625 | 0.488 | 0.631 | 0.595 | 0.494 |
| NCI-H1975 | 0.601 | 0.578 | 0.549 | 0.598 | 0.359 | 0.803 | 0.609 | 0.755 | 0.76 | 0.478 | 0.963 | 1.06 | 1.03 | 0.788 | 0.511 | 0.28 | 0.297 | 0.299 | 0.273 | 0.248 |
| NCI-H522 | 0.995 | 0.938 | 1.04 | 0.79 | 0.535 | 0.544 | 0.668 | 0.524 | 0.679 | 0.449 | – | – | – | – | – | – | – | – | – | – |
| NCI-H1437 | 0.286 | 0.324 | 0.309 | 0.357 | 0.22 | 0.646 | 0.664 | 0.63 | 0.644 | 0.53 | 1.09 | 1.13 | 1.03 | 1.01 | 1.03 | 0.416 | 0.482 | 0.441 | 0.37 | 0.335 |
| NCI-H1666 | 0.691 | 0.675 | 0.65 | 0.577 | 0.671 | 0.777 | 0.67 | 0.744 | 0.77 | 0.71 | 0.95 | 0.677 | 0.937 | 0.762 | 0.689 | 0.508 | 0.459 | 0.536 | 0.479 | 0.344 |
| NCI-H647 | 0.389 | 0.371 | 0.351 | 0.354 | 0.155 | 0.681 | 0.613 | 0.56 | 0.463 | 0.398 | 1.04 | 1.03 | 1.22 | 0.83 | 0.948 | 0.446 | 0.385 | 0.402 | 0.294 | 0.378 |
| NCI-H23 | 0.439 | 0.552 | 0.414 | 0.25 | 0.237 | 0.339 | 0.341 | 0.3 | 0.141 | 0.188 | 0.708 | 0.856 | 0.851 | 0.532 | 0.535 | 0.605 | 0.493 | 0.528 | 0.419 | 0.464 |
| NCI-H2342 | 0.51 | 0.503 | 0.492 | 0.443 | 0.48 | 0.522 | 0.385 | 0.439 | 0.338 | 0.314 | – | – | – | – | – | – | – | – | – | – |
| A549 | – | – | – | – | – | 0.465 | 0.258 | 0.305 | 0.282 | 0.0927 | 1.23 | 1.18 | 1.06 | 0.851 | 0.715 | 0.464 | 0.504 | 0.529 | 0.414 | 0.338 |
| EBC-1 | – | – | – | – | – | 0.662 | 0.736 | 0.67 | 0.579 | 0.331 | 0.417 | 0.312 | 0.339 | 0.233 | 0.281 | 0.417 | 0.345 | 0.412 | 0.298 | 0.349 |
| ABC-1 | 0.828 | 0.531 | 0.476 | 0.444 | 0.553 | 0.667 | 0.686 | 0.795 | 0.859 | 0.404 | – | – | – | – | – | 0.721 | 0.775 | 1.05 | 0.627 | 0.477 |
| NCI-H1563 | – | – | – | – | – | – | – | – | – | – | – | – | – | – | – | 0.647 | 0.734 | 0.67 | 0.613 | 0.676 |
| LCLC-103H | 0.484 | 0.538 | 0.513 | 0.498 | 0.493 | 0.731 | 0.753 | 0.749 | 0.702 | 0.817 | – | – | – | – | – | 0.721 | 0.695 | 0.506 | 0.56 | 0.526 |
| Calu-6 | – | – | – | – | – | 0.568 | 0.621 | 0.637 | 0.64 | 0.577 | 0.834 | 0.905 | 0.882 | 0.633 | 0.621 | 0.86 | 0.945 | 1.09 | 0.819 | 0.841 |
| NCI-H650 | 0.333 | 0.35 | 0.302 | 0.29 | 0.205 | 0.406 | 0.38 | 0.364 | 0.337 | 0.219 | – | – | – | – | – | 0.756 | 0.804 | 1.09 | 0.746 | 0.808 |
| NCI-H1648 | 0.37 | 0.267 | – | 0.222 | 0.266 | 1.06 | 0.725 | – | 0.639 | 0.397 | – | – | – | – | – | – | – | – | – | – |
| NCI-H596 | – | – | – | – | – | 0.743 | 0.688 | 0.651 | 0.684 | 0.612 | 0.928 | 0.919 | 0.815 | 0.52 | 0.418 | 0.404 | 0.413 | 0.362 | 0.399 | 0.358 |
| NCI-H358 | 0.134 | 0.139 | 0.125 | 0.103 | 0.127 | 0.708 | 0.546 | 0.579 | 0.572 | 0.422 | – | – | – | – | – | 0.382 | 0.316 | 0.379 | 0.268 | 0.205 |
| SW 900 | 0.531 | 0.579 | 0.577 | 0.375 | 0.288 | 0.953 | 0.819 | 0.931 | 0.823 | 0.519 | – | – | – | – | – | – | – | – | – | – |
